For data set [1] the following is noted: instrument: DT, single field, calibrated with ESI Low Concentration Tuning Mix (Agilent).
The conditions of data set [2]: instrument: TW, calibrated with polyalanine and drug standards.

“And” between values parts separate entries of the source, which are not always exact repeats. Equal entries are not always repeated.

This note sets out measurements from the C3SDB collision cross section collection.

As to `CC(=O)NCCCC(=O)O` [4-ACETAMIDOBUTANOATE], the “collision cross section (N2)” value is reported as 135.7 Å² in data set [1] ([M+Na]+) and 130.8 Å² in data set [1] ([M-H]-).

Take `NC(N)=NCCCC(=O)O` [4-GUANIDINOBUTANOATE]: the “collision cross section (N2)” value in data set [1] ([M+H]+) was 130 Å².

In the case of `O=Cc1ccc(O)cc1` [4-HYDROXYBENZALDEHYDE], the “collision cross section (N2)” value in data set [1] ([M-H]-) came to 118.2 Å².

Take `O=C(O)c1ccc([O-])cc1` [4-HYDROXYBENZOATE]: the “collision cross section (N2)” value in data set [1] ([M-H]-) turned out to be 121.2 Å².

As for `NCC(=O)CCC(=O)O` [5-AMINOLEVULINATE], the “collision cross section (N2)” value in data set [1] ([M+H]+) turned out to be 130.7 Å².

As to `NCCc1cc(O)c(O)cc1O` [6-HYDROXYDOPAMINE], the “collision cross section (N2)” value in data set [1] ([M+H]+) is 143 Å².

As to `O=C(O)c1ccc(=O)[nH]c1` [6-HYDROXYNICOTINATE], the “collision cross section (N2)” value in data set [1] ([M+H]+) is given as 128.9 Å².

`C[N+]12CC[C@@]34c5ccccc5N5C(=O)CC6OCC=C(C1)[C@H](CC32)[C@@H]6C54` (some centres undefined) [STRYCHNINE METHIODIDE]: the “collision cross section (N2)” value in data set [2] ([M]+) worked out at 175.2 Å².

Turning to `O=C1C[C@@H]2OCC=C3CN4CC[C@]56c7ccccc7N1[C@H]5[C@H]2[C@H]3C[C@H]46` [STRYCHNINE], in data set [2] ([M+H]+), the “collision cross section (N2)” value was 172.2 Å².

For the compound `O=C(O)CCC(=O)Nc1ccc(S(=O)(=O)Nc2nccs2)cc1` [SUCCINYLSULFATHIAZOLE], the “collision cross section (N2)” value in data set [2] ([M+H]+) was 182.4 Å².

For `Nc1ccc(S(=O)(=O)Nc2ncccn2)cc1` [SULFADIAZINE], the “collision cross section (N2)” value in data set [2] ([M+H]+) is 150.9 Å².

Take `COc1ncnc(NS(=O)(=O)c2ccc(N)cc2)c1OC` [SULFADOXINE]: the “collision cross section (N2)” value in data set [2] ([M+H]+) turned out to be 166.2 Å².

For the compound `COc1cnc(NS(=O)(=O)c2ccc(N)cc2)nc1` [SULFAMETER], the “collision cross section (N2)” value in data set [2] ([M+H]+) came to 159 Å².

`CC(=O)Nc1ccc(S(=O)(=O)Nc2ccc([N+](=O)[O-])cc2)cc1` [SULFANITRAN]: in data set [2] ([M+H]+), the “collision cross section (N2)” value is given as 173.2 Å².

With `Nc1ccc(S(=O)(=O)Nc2ccnn2-c2ccccc2)cc1` [SULFAPHENAZOLE], the “collision cross section (N2)” value in data set [2] ([M+H]+) is reported as 170 Å².

With `CCCCCCCCNC(C)C(O)c1ccc(SC(C)C)cc1` (centres undefined) [SULOCTIDIL], the “collision cross section (N2)” value in data set [2] ([M+H]+) was determined as 197.3 Å².

`COP(=S)(OC)Oc1ccc(Sc2ccc(OP(=S)(OC)OC)cc2)cc1` [TEMEFOS]: in data set [2] ([M+H]+), the “collision cross section (N2)” value was 203.3 Å² and 187.6 Å².

`COc1cc([C@@H]2c3cc4c(cc3[C@@H](O[C@@H]3O[C@@H]5CO[C@@H](c6cccs6)O[C@H]5[C@H](O)[C@H]3O)[C@H]3COC(=O)[C@H]23)OCO4)cc(OC)c1O` [TENIPOSIDE]: the “collision cross section (N2)” value in data set [2] ([M+Na]+) is given as 266.1 Å².

In the case of `CC(C)=CCCC1(C)C=Cc2c(O)c3c(c(CC=C(C)C)c2O1)OC12C(CC4CC1C(C)(C)OC2(C/C=C(/C)C(=O)O)C4O)C3=O` (centres undefined) [TETRAHYDROGAMBOGIC ACID], the “collision cross section (N2)” value in data set [2] ([M+H]+) stood at 246.4 Å².

For the compound `c1ccc2[nH]c(-c3cscn3)nc2c1` [THIABENDAZOLE], in data set [2] ([M+H]+), the “collision cross section (N2)” value was determined as 137.7 Å².

Turning to `Cc1ncc(C[n+]2csc(CCO)c2C)c(N)n1` [THIAMINE], the “collision cross section (N2)” value in data set [2] ([M+H]+) stood at 155.9 Å².

For the compound `CS(=O)(=O)c1ccc([C@@H](O)[C@@H](CO)NC(=O)C(Cl)Cl)cc1` [THIAMPHENICOL], the “collision cross section (N2)” value in data set [2] ([M+H]+) stood at 170.7 Å².

For the compound `CN(C)C(=S)SSC(=S)N(C)C` [THIRAM], in data set [2] ([M+H]+), the “collision cross section (N2)” value came to 148.4 Å².

For the compound `CC[C@H]1OC(=O)C[C@@H](O)[C@H](C)[C@@H](O[C@@H]2O[C@H](C)[C@@H](O)[C@H](N(C)C)[C@H]2O)[C@@H](CCN2C[C@H](C)C[C@H](C)C2)C[C@@H](C)C(=O)/C=C/C(C)=C/[C@@H]1CO[C@@H]1O[C@H](C)[C@@H](O)[C@@H](OC)[C@H]1OC` [TILMICOSIN], the “collision cross section (N2)” value in data set [2] ([M+H]+) is given as 310.2 Å².

For the compound `Cc1c(Cl)cccc1Nc1ccccc1C(=O)O` [TOLFENAMIC ACID], in data set [2] ([M+H]+), the “collision cross section (N2)” value came to 155.6 Å².

Take `Cc1cccc(N(C)C(=S)Oc2ccc3ccccc3c2)c1` [TOLNAFTATE]: the “collision cross section (N2)” value in data set [2] ([M+H]+) is 173.6 Å².

As for `CC1(C)O[C@@H]2[C@@H](CO[C@@]3(COS(N)(=O)=O)OC(C)(C)O[C@@H]23)O1` [TOPIRAMATE], the “collision cross section (N2)” value in data set [2] ([M+Na]+) is listed as 170.1 Å².

Take `C[C@]12C=CC(=O)C=C1CC[C@H]1[C@@H]3C[C@@H](O)[C@](O)(C(=O)CO)[C@@]3(C)C[C@H](O)[C@@]12F` [TRIAMCINOLONE]: the “collision cross section (N2)” value in data set [2] ([M+H]+) is recorded as 186.8 Å².

Turning to `COc1cc(C(=O)N2CCOCC2)cc(OC)c1OC` [TRIMETOZINE], in data set [2] ([M+H]+), the “collision cross section (N2)” value is 164.5 Å².

On to `CCN(Cc1ccncc1)C(=O)C(CO)c1ccccc1` (centres undefined) [TROPICAMIDE], for which the “collision cross section (N2)” value in data set [2] ([M+H]+) was 169.5 Å².

Consider `CC[C@H]1OC(=O)C[C@@H](O)[C@H](C)[C@@H](O[C@@H]2O[C@H](C)[C@@H](O[C@H]3C[C@@](C)(O)[C@@H](O)[C@H](C)O3)[C@H](N(C)C)[C@H]2O)[C@@H](CC=O)C[C@@H](C)C(=O)/C=C/C(C)=C/[C@@H]1CO[C@@H]1O[C@H](C)[C@@H](O)[C@@H](OC)[C@H]1OC` [TYLOSIN], for which the “collision cross section (N2)” value in data set [2] ([M+H]+) is given as 307.8 Å².

Take `COc1ccc(C(=O)CC(=O)O)c2c1C=CC(C)(C)O2` [URSINOIC ACID]: in data set [2] ([M+H]+), the “collision cross section (N2)” value is 159.4 Å².

For the compound `COc1ccc(C(CN(C)C)C2(O)CCCCC2)cc1` (centres undefined) [VENLAFAXINE], the “collision cross section (N2)” value in data set [2] ([M+H]+) is listed as 169.9 Å².

On to `CC(=O)CC(c1ccccc1)c1c(O)c2ccccc2oc1=O` (centres undefined) [WARFARIN], for which, in data set [2] ([M+H]+), the “collision cross section (N2)” value is recorded as 165.9 Å².

Turning to `Nc1nc(=O)c2[nH]c(=O)cnc2[nH]1` [XANTHOPTERIN], in data set [2] ([M+H]+), the “collision cross section (N2)” value stood at 131.1 Å².

Regarding `O=C(O)c1cc(=O)c2cccc(O)c2[nH]1` [XANTHURENIC ACID], the “collision cross section (N2)” value in data set [2] ([M+H]+) is 137.7 Å².

Turning to `O=C(O)[C@@H]1[C@H]2C[C@H]3c4[nH]c5ccccc5c4CCN3C[C@@H]2CC[C@@H]1O` [YOHIMBIC ACID], the “collision cross section (N2)” value in data set [2] ([M+H]+) is 181.7 Å².

For `CC(C)CC1C(=O)N2CCCC2C2(O)OC(NC(=O)C3C=C4c5cccc6[nH]cc(c56)CC4N(C)C3)(C(C)C)C(=O)N12` (stereo not drawn) [alpha-ERGOCRYPTINE], in data set [2] ([M+H]+), the “collision cross section (N2)” value worked out at 236.1 Å².
